Experimental data published in patent US20190175744A1, “INSULIN-INCRETIN CONJUGATES” (Merck Sharp & Dohme Corp., priority 2016, published 2019).
Like-named read-outs stand apart in the source and are kept apart here.

Columns and labels:
[1] = target: human GLP1R (Homo sapiens, UniProt P43220); test: cAMP activity assay, cells expressing human GLP1R; format: cell-based
[2] = target: T1, human GCGR (Homo sapiens, UniProt P47871); test: cAMP activity assay, cells expressing human GCGR; format: cell-based; settings: for GCGR/GLP1R ratio: Table 5, ratio of hGCGR EC50 to hGLP1R EC50;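 as to all read-outs here: cAMP production read by luminescence after one hour of peptide exposure at room temperature, EC50 from logistic curve fit, native glucagon and GLP-1 as control peptides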
T1 construct: expressed in transfected cells; grown with Blasticidin and Hygromycin
T1 sequence (P47871 26-477): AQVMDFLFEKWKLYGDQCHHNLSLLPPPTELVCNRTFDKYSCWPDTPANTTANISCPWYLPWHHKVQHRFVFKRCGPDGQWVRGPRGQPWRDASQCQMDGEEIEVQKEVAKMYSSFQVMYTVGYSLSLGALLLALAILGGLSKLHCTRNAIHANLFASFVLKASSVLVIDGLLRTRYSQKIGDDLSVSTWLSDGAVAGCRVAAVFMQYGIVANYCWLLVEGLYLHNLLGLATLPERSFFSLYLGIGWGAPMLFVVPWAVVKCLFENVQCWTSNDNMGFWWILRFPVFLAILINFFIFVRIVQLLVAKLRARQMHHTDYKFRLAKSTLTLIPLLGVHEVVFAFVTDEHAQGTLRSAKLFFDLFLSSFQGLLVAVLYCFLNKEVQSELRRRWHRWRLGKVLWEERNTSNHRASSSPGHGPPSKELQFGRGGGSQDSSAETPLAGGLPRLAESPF
Description: Activity of the incretin peptides or the conjugates at the Glucagon receptor (GCGR) and GLP-1 receptor (GLP1R) may be measured in a cAMP activity assay as follows.
Peptides are dissolved in 100% DMSO and serially diluted to generate 10 point titrations. The peptide solutions are then transferred into 384-well assay plates (150 nL/well). Assay ready frozen cells expressing human GLP1R or human GCGR are suspended in growth media consisting of DMEM medium (GIBCO), 10% FBS (GIBCO), 1×NEAA(GIBCO), 1×P/S (GIBCO), 10 μg/mL Blasticidin (GIBCO) and 200 μg/mL Hygromycin (GIBCO). […] The cell suspensions (15 μL) are then added to the assay plates containing the peptide solutions (30,000 cells/well for human GCGR; 10,000 cells/well for human GLP1R). The cells are incubated for one hour at room temperature in the dark.
Production of cAMP may be determined using HitHunterr cAMPXS kits (DiscoverX) following the manufacturer's protocol. The plates are incubated for overnight at room temperature in the dark. Luminescence may be measured using an EnVision Multilabel plate reader (Perkin Elmer). Native GLP-1 and Glucagon (Bachem) may be used as control peptides. EC50 values may be calculated using uses a 4 parameter logistic fit based on the Levenberg-Marquardt algorithm.

Chain of human GLP1R (P43220 24-463): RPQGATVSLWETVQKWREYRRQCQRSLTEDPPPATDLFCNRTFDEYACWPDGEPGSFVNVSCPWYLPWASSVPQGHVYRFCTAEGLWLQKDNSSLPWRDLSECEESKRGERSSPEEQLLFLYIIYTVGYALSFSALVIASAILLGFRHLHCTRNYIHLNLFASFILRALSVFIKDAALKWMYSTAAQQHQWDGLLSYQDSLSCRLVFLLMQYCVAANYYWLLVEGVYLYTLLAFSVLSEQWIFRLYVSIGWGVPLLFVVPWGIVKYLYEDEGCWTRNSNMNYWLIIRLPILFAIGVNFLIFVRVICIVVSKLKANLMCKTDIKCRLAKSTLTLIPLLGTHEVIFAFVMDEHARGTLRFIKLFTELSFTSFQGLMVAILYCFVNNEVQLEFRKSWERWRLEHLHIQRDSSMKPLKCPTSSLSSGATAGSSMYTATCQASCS

Row | SMILES | EC50 ([1]; Table 5, incretin peptides, cAMP, read-out: hGLP1R EC50) | EC50 [2] | GCGR/GLP1R ratio [2] | EC50 [1]
1 | CC(C)C[C@H](NC(=O)[C@H](Cc1ccc(O)cc1)NC(=O)[C@H](CCCCN)NC(=O)[C@H](CO)NC(=O)[C@H](CCCCN)NC(=O)[C@H](CC(=O)O)NC(=O)[C@H](CO)NC(=O)[C@@H](NC(=O)[C@H](Cc1ccccc1)NC(=O)[C@@H](NC(=O)CNC(=O)[C@H](CCC(N)=O)NC(=O)[C@@H](CO)NC(=O)[C@@H](N)Cc1c[nH]cn1)[C@@H](C)O)[C@@H](C)O)C(=O)N[C@@H](CC(=O)O)C(=O)N[C@@H](CCC(=O)O)C(=O)N[C@@H](CCCNC(=N)N)C(=O)N[C@@H](C)C(=O)N[C@@H](C)C(=O)N[C@@H](CCCCN=[N+]=[N-])C(=O)N[C@@H](CC(=O)O)C(=O)N[C@@H](Cc1ccccc1)C(=O)N[C@H](C(=O)N[C@@H](CCC(N)=O)C(=O)N[C@@H](Cc1c[nH]c2ccccc12)C(=O)N[C@@H](CC(C)C)C(=O)N[C@@H](CC(C)C)C(=O)N[C@@H](CC(=O)O)C(=O)N[C@H](C(N)=O)[C@@H](C)O)C(C)C [PEP71] | 0.06 nM | 0.12 nM | 2.0 | –
2 | CCCCCCCCCCCCCCCC(=O)N[C@@H](CCC(=O)N[C@@H](CCC(=O)NCCCC[C@H](NC(=O)[C@H](CC(=O)O)NC(=O)[C@H](CO)NC(=O)[C@@H](NC(=O)[C@H](Cc1ccccc1)NC(=O)[C@@H](NC(=O)CNC(=O)[C@H](CCC(N)=O)NC(=O)[C@@H](CO)NC(=O)[C@@H](N)Cc1c[nH]cn1)[C@@H](C)O)[C@@H](C)O)C(=O)N[C@@H](CO)C(=O)N[C@@H](CCCCN)C(=O)N[C@@H](Cc1ccc(O)cc1)C(=O)N[C@@H](CC(C)C)C(=O)N[C@@H](CC(=O)O)C(=O)N[C@@H](CCC(=O)O)C(=O)N[C@@H](CCCNC(=N)N)C(=O)N[C@@H](C)C(=O)N[C@@H](C)C(=O)N[C@@H](CCC(N)=O)C(=O)N[C@@H](CC(=O)O)C(=O)N[C@@H](Cc1ccccc1)C(=O)N[C@H](C(=O)N[C@@H](CCCCNC(=O)COCCOCCNC(=O)CCCCN=[N+]=[N-])C(=O)N[C@@H](Cc1c[nH]c2ccccc12)C(=O)N[C@@H](CC(C)C)C(=O)N[C@@H](CC(C)C)C(=O)N[C@@H](CC(=O)O)C(=O)N[C@H](C(N)=O)[C@@H](C)O)C(C)C)C(=O)O)C(=O)O [PEP14] | – | 0.05 nM | 0.8 | 0.07 nM
3 | CCCCCCCCCCCCCCCC(=O)N[C@@H](CCC(=O)N[C@@H](CCC(=O)NCCCC[C@H](NC(=O)[C@H](CC(=O)O)NC(=O)[C@H](CO)NC(=O)[C@@H](NC(=O)[C@H](Cc1ccccc1)NC(=O)[C@@H](NC(=O)CNC(=O)[C@H](CCC(N)=O)NC(=O)C(C)(C)NC(=O)[C@@H](N)Cc1c[nH]cn1)[C@@H](C)O)[C@@H](C)O)C(=O)N[C@@H](CO)C(=O)N[C@@H](CCCCN)C(=O)N[C@@H](Cc1ccc(O)cc1)C(=O)N[C@@H](CC(C)C)C(=O)N[C@@H](CC(=O)O)C(=O)NC(C)(C)C(=O)N[C@@H](CCCNC(=N)N)C(=O)N[C@@H](C)C(=O)N[C@@H](C)C(=O)N[C@@H](CCC(N)=O)C(=O)N[C@@H](CC(=O)O)C(=O)N[C@@H](Cc1ccccc1)C(=O)N[C@H](C(=O)N[C@@H](CCC(N)=O)C(=O)N[C@@H](Cc1c[nH]c2ccccc12)C(=O)N[C@@H](CC(C)C)C(=O)N[C@@H](CC(C)C)C(=O)N[C@@H](CC(=O)O)C(=O)N[C@H](C(=O)N[C@@H](CCCCN)C(=O)N[C@@H](CCCCNC(=O)COCCOCCNC(=O)CCCCN=[N+]=[N-])C(N)=O)[C@@H](C)O)C(C)C)C(=O)O)C(=O)O [PEP20] | – | 0.1 nM | 2.0 | 0.05 nM
